Test results taken from ChEMBL document CHEMBL3885881, “DrugMatrix”.

Species: Rattus norvegicus
Test: DrugMatrix - Regimen: Daily Repeat
Format: toxicity, organism-based, Sprague-Dawley
Set-up: regimen Daily Repeat, gender Male, age 6-8 weeks
Settings: in vivo, sc, route subcutaneous, […]; for ABSOLUTE BASOPHIL / ABSOLUTE EOSINOPHIL / ABSOLUTE LYMPHOCYTE / ABSOLUTE MONOCYTE / ABSOLUTE SEGMENTED NEUTROPHIL / BASOPHIL / EOSINOPHIL / ERYTHROCYTE COUNT / HEMATOCRIT / HEMOGLOBIN / LEUKOCYTE COUNT / LYMPHOCYTE / MEAN CORPUSCULAR HEMOGLOBIN / MEAN CORPUSCULAR HEMOGLOBIN CONCENTRATION / MONOCYTE / NUCLEATED RED BLOOD CELLS / PLATELET COUNT: tissue Blood; for ALANINE AMINOTRANSFERASE / ALBUMIN / ALKALINE PHOSPHATASE / ASPARTATE AMINOTRANSFERASE / BLOOD UREA NITROGEN / CARBON DIOXIDE / CHLORIDE / CHOLESTEROL / CREATINE PHOSPHOKINASE / CREATININE / GLUCOSE / LACTATE DEHYDROGENASE / PHOSPHORUS / POTASSIUM / SODIUM / TOTAL BILIRUBIN / TOTAL PROTEIN / URIC ACID: tissue Plasma
[1] = 130 mg/kg, 72 h, dose level High, time 3 day
[2] = 130 mg/kg, 120 h, dose level High, time 5 day
[3] = 72 h, dose 2.4 mg/Kg, dose level Low, time 3 day
[4] = 120 h, dose 2.4 mg/Kg, dose level Low, time 5 day

SMILES: CC(C)(C)NCC(O)c1cc(O)cc(O)c1 (stereo not given) [TERBUTALINE]
- ABSOLUTE BASOPHIL [1]: 0 CELLS/uL
- ABSOLUTE EOSINOPHIL [1]: 167.67 CELLS/uL
- ABSOLUTE LYMPHOCYTE [1]: 11900.33 CELLS/uL
- ABSOLUTE MONOCYTE [1]: 398.67 CELLS/uL
- ABSOLUTE SEGMENTED NEUTROPHIL [1]: 1166.67 CELLS/uL
- BASOPHIL [1]: 0%
- EOSINOPHIL [1]: 1.33%
- ERYTHROCYTE COUNT [1]: 5.52 x10E6/uL
- HEMATOCRIT [1]: 35.5%
- HEMOGLOBIN [1]: 13.33 G/DL
- LEUKOCYTE COUNT [1]: 13.63 x10E3/uL
- LYMPHOCYTE [1]: 87%
- MEAN CORPUSCULAR HEMOGLOBIN [1]: 24.2 pg
- MEAN CORPUSCULAR HEMOGLOBIN CONCENTRATION [1]: 37.57 G/DL
- MONOCYTE [1]: 3%
- NUCLEATED RED BLOOD CELLS [1]: 0 /100WBC
- PLATELET COUNT [1]: 1383.67 x10E3/uL
- ALANINE AMINOTRANSFERASE [1]: 49 u/L
- ALBUMIN [1]: 4.03 G/DL
- ALKALINE PHOSPHATASE [1]: 361 u/L
- ASPARTATE AMINOTRANSFERASE [1]: 73.33 u/L
- BLOOD UREA NITROGEN [1]: 18.33 mg/dL
- CARBON DIOXIDE [1]: 25.67 mmol/L
- CHLORIDE [1]: 104 MEQ/L
- CHOLESTEROL [1]: 72.33 mg/dL
- CREATINE PHOSPHOKINASE [1]: 253.67 u/L
- CREATININE [1]: 0.23 mg/dL
- GLUCOSE [1]: 146 mg/dL
- LACTATE DEHYDROGENASE [1]: 407 u/L
- PHOSPHORUS [1]: 12.8 mg/dL
- POTASSIUM [1]: 6.42 MEQ/L
- SODIUM [1]: 145.5 MEQ/L
- TOTAL BILIRUBIN [1]: 0.2 mg/dL
- TOTAL PROTEIN [1]: 5.97 G/DL
- URIC ACID [1]: 1.3 mg/dL
- ABSOLUTE BASOPHIL [2]: 0 CELLS/uL
- ABSOLUTE EOSINOPHIL [2]: 53.33 CELLS/uL
- ABSOLUTE LYMPHOCYTE [2]: 12240 CELLS/uL
- ABSOLUTE MONOCYTE [2]: 406 CELLS/uL
- ABSOLUTE SEGMENTED NEUTROPHIL [2]: 2467.33 CELLS/uL
- BASOPHIL [2]: 0%
- EOSINOPHIL [2]: 0.33%
- ERYTHROCYTE COUNT [2]: 6.08 x10E6/uL
- HEMATOCRIT [2]: 37.43%
- HEMOGLOBIN [2]: 14.03 G/DL
- LEUKOCYTE COUNT [2]: 15.17 x10E3/uL
- LYMPHOCYTE [2]: 80.67%
- MEAN CORPUSCULAR HEMOGLOBIN [2]: 23.13 pg
- MEAN CORPUSCULAR HEMOGLOBIN CONCENTRATION [2]: 37.47 G/DL
- MONOCYTE [2]: 2.67%
- NUCLEATED RED BLOOD CELLS [2]: 0.33 /100WBC
- PLATELET COUNT [2]: 1346 x10E3/uL
- ALANINE AMINOTRANSFERASE [2]: 52.67 u/L
- ALBUMIN [2]: 4.13 G/DL
- ALKALINE PHOSPHATASE [2]: 293.33 u/L
- ASPARTATE AMINOTRANSFERASE [2]: 84.67 u/L
- BLOOD UREA NITROGEN [2]: 17.33 mg/dL
- CARBON DIOXIDE [2]: 28.33 mmol/L
- CHLORIDE [2]: 101.33 MEQ/L
- CHOLESTEROL [2]: 69 mg/dL
- CREATINE PHOSPHOKINASE [2]: 289.33 u/L
- CREATININE [2]: 0.22 mg/dL
- GLUCOSE [2]: 150.67 mg/dL
- LACTATE DEHYDROGENASE [2]: 492.33 u/L
- PHOSPHORUS [2]: 14.6 mg/dL
- POTASSIUM [2]: 6.32 MEQ/L
- SODIUM [2]: 146.93 MEQ/L
- TOTAL BILIRUBIN [2]: 0.2 mg/dL
- TOTAL PROTEIN [2]: 6.13 G/DL
- URIC ACID [2]: 1.93 mg/dL
- ABSOLUTE BASOPHIL [3]: 0 CELLS/uL
- ABSOLUTE EOSINOPHIL [3]: 181 CELLS/uL
- ABSOLUTE LYMPHOCYTE [3]: 16357.33 CELLS/uL
- ABSOLUTE MONOCYTE [3]: 366 CELLS/uL
- ABSOLUTE SEGMENTED NEUTROPHIL [3]: 1395.67 CELLS/uL
- BASOPHIL [3]: 0%
- EOSINOPHIL [3]: 1%
- ERYTHROCYTE COUNT [3]: 5.97 x10E6/uL
- HEMATOCRIT [3]: 37.73%
- HEMOGLOBIN [3]: 13.8 G/DL
- LEUKOCYTE COUNT [3]: 18.3 x10E3/uL
- LYMPHOCYTE [3]: 89.33%
- MEAN CORPUSCULAR HEMOGLOBIN [3]: 23.13 pg
- MEAN CORPUSCULAR HEMOGLOBIN CONCENTRATION [3]: 36.6 G/DL
- MONOCYTE [3]: 2%
- NUCLEATED RED BLOOD CELLS [3]: 0 /100WBC
- PLATELET COUNT [3]: 1334.67 x10E3/uL
- ALANINE AMINOTRANSFERASE [3]: 41.67 u/L
- ALBUMIN [3]: 4.2 G/DL
- ALKALINE PHOSPHATASE [3]: 286.67 u/L
- ASPARTATE AMINOTRANSFERASE [3]: 75 u/L
- BLOOD UREA NITROGEN [3]: 17 mg/dL
- CARBON DIOXIDE [3]: 24.33 mmol/L
- CHLORIDE [3]: 105.67 MEQ/L
- CHOLESTEROL [3]: 72.67 mg/dL
- CREATINE PHOSPHOKINASE [3]: 235.33 u/L
- CREATININE [3]: 0.23 mg/dL
- GLUCOSE [3]: 155.67 mg/dL
- LACTATE DEHYDROGENASE [3]: 382 u/L
- PHOSPHORUS [3]: 13.4 mg/dL
- POTASSIUM [3]: 6.76 MEQ/L
- SODIUM [3]: 149.43 MEQ/L
- TOTAL BILIRUBIN [3]: 0.2 mg/dL
- TOTAL PROTEIN [3]: 6.23 G/DL
- URIC ACID [3]: 1.77 mg/dL
- ABSOLUTE BASOPHIL [4]: 0 CELLS/uL
- ABSOLUTE EOSINOPHIL [4]: 0 CELLS/uL
- ABSOLUTE LYMPHOCYTE [4]: 13803 CELLS/uL
- ABSOLUTE MONOCYTE [4]: 207 CELLS/uL
- ABSOLUTE SEGMENTED NEUTROPHIL [4]: 2023.33 CELLS/uL
- BASOPHIL [4]: 0%
- EOSINOPHIL [4]: 0%
- ERYTHROCYTE COUNT [4]: 5.8 x10E6/uL
- HEMATOCRIT [4]: 36.37%
- HEMOGLOBIN [4]: 13.53 G/DL
- LEUKOCYTE COUNT [4]: 16.03 x10E3/uL
- LYMPHOCYTE [4]: 86%
- MEAN CORPUSCULAR HEMOGLOBIN [4]: 23.33 pg
- MEAN CORPUSCULAR HEMOGLOBIN CONCENTRATION [4]: 37.23 G/DL
- MONOCYTE [4]: 1.33%
- NUCLEATED RED BLOOD CELLS [4]: 0 /100WBC
- PLATELET COUNT [4]: 1437.33 x10E3/uL
- ALANINE AMINOTRANSFERASE [4]: 49.33 u/L
- ALBUMIN [4]: 4.13 G/DL
- ALKALINE PHOSPHATASE [4]: 415 u/L
- ASPARTATE AMINOTRANSFERASE [4]: 76 u/L
- BLOOD UREA NITROGEN [4]: 20.33 mg/dL
- CARBON DIOXIDE [4]: 27.67 mmol/L
- CHLORIDE [4]: 105 MEQ/L
- CHOLESTEROL [4]: 63 mg/dL
- CREATINE PHOSPHOKINASE [4]: 180 u/L
- CREATININE [4]: 0.22 mg/dL
- GLUCOSE [4]: 154 mg/dL
- LACTATE DEHYDROGENASE [4]: 224.33 u/L
- PHOSPHORUS [4]: 13.03 mg/dL
- POTASSIUM [4]: 6.39 MEQ/L
- SODIUM [4]: 146.27 MEQ/L
- TOTAL BILIRUBIN [4]: 0.17 mg/dL
- TOTAL PROTEIN [4]: 5.87 G/DL
- URIC ACID [4]: 1.57 mg/dL
